Experimental data: patent publication US10501453B2, “Benzothiazole or benzoxazole compounds as SUMO activators” (Icahn School of Medicine at Mount Sinai, priority 2012, dated 2019)

Experiments:
NCI-60 human tumor cell = NCI-60 human tumor cell screen; type: cell-based; conditions: NCI-60 set
Description: The NCI-60 human tumor cell screen used by the National Cancer Institute's Developmental Therapeutics Program was performed on Example 1. The NCI-60 set includes leukemia, lymphomas, and carcinomas of ovarian, renal, breast, prostate, colon, lung and CNS origin.

SUMO E1 enzyme = target: T1, SUMO E1 enzyme (Homo sapiens, UniProt Q9UBT2); assay: Thioester formation between SUMO-1 and SUMO E1 enzyme (gel-based assay); type: biochemical
T1 sequence (Q9UBT2 1-640): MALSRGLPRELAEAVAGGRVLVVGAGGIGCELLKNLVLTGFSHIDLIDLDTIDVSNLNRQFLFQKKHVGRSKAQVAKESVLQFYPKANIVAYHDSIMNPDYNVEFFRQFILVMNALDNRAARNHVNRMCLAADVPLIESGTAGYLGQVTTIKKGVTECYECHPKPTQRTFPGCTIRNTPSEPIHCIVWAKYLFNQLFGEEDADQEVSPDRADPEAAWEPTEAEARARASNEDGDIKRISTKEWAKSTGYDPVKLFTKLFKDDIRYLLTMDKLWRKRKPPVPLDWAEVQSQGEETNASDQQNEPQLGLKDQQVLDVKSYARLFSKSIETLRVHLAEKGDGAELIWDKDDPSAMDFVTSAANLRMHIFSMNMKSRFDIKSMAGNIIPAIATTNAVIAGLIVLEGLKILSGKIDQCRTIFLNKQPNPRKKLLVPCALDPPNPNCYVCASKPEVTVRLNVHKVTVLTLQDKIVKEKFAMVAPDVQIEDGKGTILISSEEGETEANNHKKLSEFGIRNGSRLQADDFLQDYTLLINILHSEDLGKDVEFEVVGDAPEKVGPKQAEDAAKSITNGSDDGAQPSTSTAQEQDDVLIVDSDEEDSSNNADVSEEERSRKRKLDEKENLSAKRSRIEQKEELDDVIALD
T1 sequence (Q9UBE0 1-346): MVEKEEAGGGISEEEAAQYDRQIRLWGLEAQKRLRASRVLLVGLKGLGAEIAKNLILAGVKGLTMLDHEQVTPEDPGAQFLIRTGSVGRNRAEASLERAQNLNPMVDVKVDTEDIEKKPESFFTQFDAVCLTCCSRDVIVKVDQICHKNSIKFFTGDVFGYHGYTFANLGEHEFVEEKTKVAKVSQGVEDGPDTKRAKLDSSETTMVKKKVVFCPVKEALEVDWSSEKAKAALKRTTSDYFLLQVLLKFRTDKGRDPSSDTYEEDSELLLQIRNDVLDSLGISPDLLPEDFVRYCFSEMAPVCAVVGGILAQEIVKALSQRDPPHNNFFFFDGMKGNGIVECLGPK

[1] = test system: Yorkshire pigs with severe heart failure; assay: Contractility in Yorkshire pigs with severe heart failure secondary to myocardial infarction; type: in vivo, pig; conditions: 5 mg/kg, intracoronary
Description: Example 1 was dosed in Yorkshire pigs at 5 mg/kg with severe heart failure secondary to myocardial infarction.
The experimental protocols complied with the National Institutes of Health Guide for the Care and Use of Laboratory Animals and standards of United States regulatory agencies. They were approved by the Institutional Animal Care and Use Committee of the Mount Sinai School of Medicine. Yorkshire pigs were pre-medicated using intramuscular Telazol™ (8.0 mg/kg; tiletamine hydrochloride and zolazepam hydrochloride; Fort Dodge Animal Health, Fort Dodge, Iowa). After the placement of an intravenous line, animals were intubated and ventilated with 100% oxygen. General anesthesia was maintained with intravenous propofol (8-10 mg/kg/hr) throughout the procedure.
The animals underwent a 2-hour balloon occlusion of the proximal LAD (left anterior descending coronary artery) followed by reperfusion. Ten minutes before MI creation a continuous infusion of 20 mEq potassium acetate, 75 mg amiodarone, and 2 mg atropine was initiated to reduce ischemia related arrhythmia. […] Arterial pressure, blood oxygen saturation (SpO2), and electrocardiogram were monitored closely throughout the procedure. […]
Cardiac performance was evaluated at one month after MI. […] Cardiac function was monitored and recorded for 3 hours after injection.

SUMO E2 enzyme, UBC9 = assay: Transfer of activated SUMO-1 from SUMO E1 to SUMO E2 enzyme UBC9 (gel-based assay); type: biochemical
[2] = Pharmacokinetic analysis in mice; conditions: mouse, in vivo, ip; murine model, 10 mg/kg intraperitoneal dose
Description: FIG. 12 depicts the pharmacokinetic analysis of the compound of Example 1 in mice at a 10 mg/kg intraperitoneal dose.

- EC50 (SUMO E1 enzyme): 1.85 ± 0.96 µM
- EC50 (SUMO E2 enzyme, UBC9): 10.2 ± 0.28 µM
- Cmax [2]: 2.24 µM
- half-life [2]: 1.09 h
SMILES: COc1ccc(-c2nnc(Nc3nc4c(OC)cccc4s3)o2)cc1 [Example 1, N-(4-methoxybenzo[d]thiazol-2-yl)-5-(4-methoxyphenyl)-1,3,4-oxadiazol-2-amine]
- cancer cell growth and proliferation (NCI-60 human tumor cell): did not induce cancer cell growth and proliferation
- increase in contractility (as measured by dP/dt) [1]: 25-30%
